# From patent publication US8916702B2 (priority 2012, dated 2014)
# Test system: HCV pseudoparticles (genotype 1a HCV E1 and E2 envelope, H77C isolate)
# Experiment: microbe, parasite or virus in culture
# Assay type: cell-based
# Conditions: Hepatitis C virus, Huh-7, 48 h, HCV pseudoparticle infection of Huh7 cells, luciferase 2 days after infection; average of duplicates
row,Structure (SMILES),EC50
1,COC(=O)[C@H](CNC(=O)C(=O)NCc1cc(F)cc(F)c1)NC(=O)c1ccc(Nc2nc(NC3(c4ccc(Cl)cc4)CC3)nc(OCC(F)(F)F)n2)cc1 [Compound 1138],0.81 nM
2,COC(=O)[C@H](CNC(=O)C(=O)NC1CCC(C)CC1)NC(=O)c1ccc(Nc2nc(NC3(c4ccc(Cl)cc4)CC3)nc(OCC(F)(F)F)n2)cc1 (stereo partly shown) [Compound 1064],1.89 nM
3,COc1ccc(NC(=O)C(=O)NC[C@H](NC(=O)c2ccc(Nc3nc(NC4(c5ccc(Cl)cc5)CC4)nc(OCC(F)(F)F)n3)cc2)C(=O)O)cc1 [Compound 1362],0.3 nM
4,C[C@]12C3C1[C@H]3C[C@H]2NC(=O)C(=O)NC[C@H](NC(=O)c1ccc(Nc2nc(NC3(c4ccc(Cl)cc4)CC3)nc(OCC(F)(F)F)n2)cc1)C(=O)O (stereo partly shown) [Compound 1084],0.26 nM
5,"COC(=O)[C@H](CNC(=O)C(=O)N(C)C)NC(=O)c1ccc(Nc2nc(NC3(c4ccc(Cl)cc4)CC3)nc(OCC(F)(F)F)n2)cc1 [Compound 1004, (S)-methyl 2-(4-(4-(1-(4-chlorophenyl)cyclopropylamino)-6-(2,2,2-trifluoroethoxy)-1,3,5-triazin-2-ylamino)benzamido)-3-(2-(dimethylamino)-2-oxoacetamido)propanoate]",4.74 nM

# Same assay, conditions: Hepatitis C virus, Huh-7, 48 h, read-out: Activity (EC50 class), HCV pseudoparticle infection of Huh7 cells, luciferase 2 days after infection; EC50 expressed as class A/B
row,Structure (SMILES),EC50
1,COC(=O)[C@H](CNC(=O)C(=O)NCc1cc(F)cc(F)c1)NC(=O)c1ccc(Nc2nc(NC3(c4ccc(Cl)cc4)CC3)nc(OCC(F)(F)F)n2)cc1 [Compound 1138],0.01 to 10 nM
2,O=C(NCC[C@H](NC(=O)c1ccc(Nc2nc(NC3(c4ccc(Cl)cc4)CC3)nc(OCC(F)(F)F)n2)cc1)C(=O)O)C(=O)NCC1(COc2ccccc2)CC1 [Compound 1431],0.01 to 10 nM
3,CC(C)(CNC(=O)C(=O)Nc1ccc(-c2ccc(-c3ccccc3)cc2)cc1)CNC(=O)c1ccc(Nc2nc(NC3(c4ccc(Cl)cc4)CC3)nc(OCC(F)(F)F)n2)cc1 [Compound 1564],0.01 to 10 nM
4,COC(=O)[C@H](CNC(=O)C(=O)Nc1cccnc1)NC(=O)c1ccc(Nc2nc(NC3(c4ccc(Cl)cc4)CC3)nc(OCC(F)(F)F)n2)cc1 [Compound 1259],0.01 to 10 nM
5,COC(=O)[C@H](CNC(=O)C(=O)NC1CCC(C)CC1)NC(=O)c1ccc(Nc2nc(NC3(c4ccc(Cl)cc4)CC3)nc(OCC(F)(F)F)n2)cc1 (stereo partly shown) [Compound 1064],0.01 to 10 nM
6,COC(=O)[C@H](CNC(=O)C(=O)NC1CC(C)CC(C)(C)C1)NC(=O)c1ccc(Nc2nc(NC3(c4ccc(Cl)cc4)CC3)nc(OCC(F)(F)F)n2)cc1 (stereo partly shown) [Compound 1060],0.01 to 10 nM
7,COC(=O)[C@H](CCNC(=O)C(=O)N[C@H]1C[C@@H]2C[C@@H]([C@@H]1C)C2(C)C)NC(=O)c1ccc(Nc2nc(NC3(c4ccc(Cl)cc4)CC3)nc(OCC(F)(F)F)n2)cc1 [Compound 1110],0.01 to 10 nM
8,COc1ccc(NC(=O)C(=O)NC[C@H](NC(=O)c2ccc(Nc3nc(NC4(c5ccc(Cl)cc5)CC4)nc(OCC(F)(F)F)n3)cc2)C(=O)O)cc1 [Compound 1362],0.01 to 10 nM
9,CCOCC1(CNC(=O)C(=O)NCC[C@H](NC(=O)c2ccc(Nc3nc(NC4(c5ccc(Cl)cc5)CC4)nc(OCC(F)(F)F)n3)cc2)C(=O)O)CC1 [Compound 1422],0.01 to 10 nM
10,COC(=O)[C@H](CCNC(=O)C(=O)NCC1CC1)NC(=O)c1ccc(Nc2nc(NC3(c4ccc(Cl)cc4)CC3)nc(OCC(F)(F)F)n2)cc1 [Compound 1196],0.01 to 10 nM
11,CC(C)(C)C1CCC(NC(=O)C(=O)NCC[C@H](NC(=O)c2ccc(Nc3nc(NC4(c5ccc(Cl)cc5)CC4)nc(OCC(F)(F)F)n3)cc2)C(=O)O)CC1 (stereo partly shown) [Compound 1128],0.01 to 10 nM
12,CC(C)(C)OC(=O)N1CCC(NC(=O)C(=O)NCC[C@H](NC(=O)c2ccc(Nc3nc(NC4(c5ccc(Cl)cc5)CC4)nc(OCC(F)(F)F)n3)cc2)C(=O)O)CC1 [Compound 1119],0.01 to 10 nM
13,COc1ccccc1NC(=O)C(=O)NC[C@H](NC(=O)c1ccc(Nc2nc(NC3(c4ccc(Cl)cc4)CC3)nc(OCC(F)(F)F)n2)cc1)C(=O)O [Compound 1364],0.01 to 10 nM
14,COC(=O)[C@H](CCNC(=O)C(=O)NCc1cc(F)ccc1F)NC(=O)c1ccc(Nc2nc(NC3(c4ccc(Cl)cc4)CC3)nc(OCC(F)(F)F)n2)cc1 [Compound 1157],0.01 to 10 nM
15,O=C(NCC[C@H](NC(=O)c1ccc(Nc2nc(NC3(c4ccc(Cl)cc4)CC3)nc(OCC(F)(F)F)n2)cc1)C(=O)O)C(=O)N[C@H]1C[C@H]1c1ccccc1 [Compound 1338],0.01 to 10 nM
16,COC(=O)[C@H](CNC(=O)C(=O)NCCc1cccc(OC)c1)NC(=O)c1ccc(Nc2nc(NC3(c4ccc(Cl)cc4)CC3)nc(OCC(F)(F)F)n2)cc1 [Compound 1286],0.01 to 10 nM
17,COC(=O)[C@@H](CCNC(=O)C(=O)NCC1CC1c1ccc(F)cc1)NC(=O)c1ccc(Nc2nc(NC3(c4ccc(Cl)cc4)CC3)nc(OCC(F)(F)F)n2)cc1 (stereo partly shown) [Compound 1389],0.01 to 10 nM
18,O=C(NCCc1ccccn1)C(=O)NCC[C@H](NC(=O)c1ccc(Nc2nc(NC3(c4ccc(Cl)cc4)CC3)nc(OCC(F)(F)F)n2)cc1)C(=O)O [Compound 1326],0.01 to 10 nM
19,C[C@]12C3C1[C@H]3C[C@H]2NC(=O)C(=O)NC[C@H](NC(=O)c1ccc(Nc2nc(NC3(c4ccc(Cl)cc4)CC3)nc(OCC(F)(F)F)n2)cc1)C(=O)O (stereo partly shown) [Compound 1084],0.01 to 10 nM
20,"COC(=O)[C@H](CNC(=O)C(=O)N(C)C)NC(=O)c1ccc(Nc2nc(NC3(c4ccc(Cl)cc4)CC3)nc(OCC(F)(F)F)n2)cc1 [Compound 1004, (S)-methyl 2-(4-(4-(1-(4-chlorophenyl)cyclopropylamino)-6-(2,2,2-trifluoroethoxy)-1,3,5-triazin-2-ylamino)benzamido)-3-(2-(dimethylamino)-2-oxoacetamido)propanoate]",0.01 to 10 nM
21,CCC1(CC)CC1CNC(=O)C(=O)NC[C@H](NC(=O)c1ccc(Nc2nc(NC3(c4ccc(Cl)cc4)CC3)nc(OCC(F)(F)F)n2)cc1)C(=O)O (stereo partly shown) [Compound 1471],0.01 to 10 nM
22,COCCNC(=O)C(=O)NC[C@H](NC(=O)c1ccc(Nc2nc(NC3(c4ccc(Cl)cc4)CC3)nc(OCC(F)(F)F)n2)cc1)C(=O)O [Compound 1046],0.01 to 10 nM
23,O=C(NCc1ccc(F)cc1)C(=O)NC[C@H](NC(=O)c1ccc(Nc2nc(NC3(c4ccc(Cl)cc4)CC3)nc(OCC(F)(F)F)n2)cc1)C(=O)O [Compound 1166],0.01 to 10 nM
24,CC(C)(CNC(=O)C(=O)N1CCCCC1)CNC(=O)c1ccc(Nc2nc(NC3(c4ccc(Cl)cc4)CC3)nc(OCC(F)(F)F)n2)cc1 [Compound 1550],0.01 to 10 nM
25,COC(=O)[C@H](CNC(=O)C(=O)NCCc1c[nH]cn1)NC(=O)c1ccc(Nc2nc(NC3(c4ccc(Cl)cc4)CC3)nc(OCC(F)(F)F)n2)cc1 [Compound 1295],10 to 1000 nM

# Same assay, conditions: Hepatitis C virus, Huh-7, 48 h, read-out: Activity (EC50 class), HCV pseudoparticles, Huh7 cells, luciferase 2 days after infection; average of duplicates
row,Structure (SMILES),EC50
1,O=C(NCC[C@H](NC(=O)c1ccc(Nc2nc(NC3(c4ccc(Cl)cc4)CC3)nc(OCC(F)(F)F)n2)cc1)C(=O)O)C(=O)Nc1cccc(Oc2ccccc2)c1 [Compound 3620],0.01 to 10 nM
2,O=C(NC[C@H](NC(=O)c1ccc(Nc2nc(NC3(c4ccc(Cl)cc4)CC3)nc(OCC(F)(F)F)n2)cc1)C(=O)Cl)C(=O)Nc1cccc(Oc2cccnc2)c1 [Compound 3792],0.01 to 10 nM
3,COC(=O)[C@H](CNC(=O)C(=O)Nc1cccc(-c2ccc(Cl)cc2)c1)NC(=O)c1ccc(Nc2nc(NC3(c4ccc(Cl)cc4)CC3)nc(OCC(F)(F)F)n2)cc1 [Compound 3720],0.01 to 10 nM
4,CC(C)(CNC(=O)C(=O)Nc1ccc(C#N)cc1)CNC(=O)c1ccc(Nc2nc(NC3(c4ccc(Cl)cc4)CC3)nc(OCc3ccccc3F)n2)cc1 [Compound 3853],0.01 to 10 nM
5,CC(C)(CNC(=O)C(=O)Nc1nc2c(F)cc(F)cc2s1)CNC(=O)c1ccc(Nc2nc(NC3(c4ccc(Cl)cc4)CC3)nc(OCC(F)(F)F)n2)cc1 [Compound 3809],0.01 to 10 nM
6,Cc1ccc(NC(=O)C(=O)NCC[C@H](NC(=O)c2ccc(Nc3nc(NC4(c5ccc(Cl)cc5)CC4)nc(OCC(F)(F)F)n3)cc2)C(=O)O)cn1 [Compound 3636],0.01 to 10 nM
7,CCc1ccc(COc2nc(Nc3ccc(C(=O)NCC(C)(C)CNC(=O)C(=O)Nc4ccc(C)cc4)cc3)nc(NC3(c4ccc(Cl)cc4)CC3)n2)cc1 [Compound 3842],0.01 to 10 nM
8,Cc1nccc(-c2cccc(NC(=O)C(=O)NC[C@H](NC(=O)c3ccc(Nc4nc(NC5(c6ccc(Cl)cc6)CC5)nc(OCC(F)(F)F)n4)cc3)C(=O)O)c2)n1 [Compound 3756],0.01 to 10 nM
9,Cn1nnnc1-c1cccc(NC(=O)C(=O)NCC[C@H](NC(=O)c2ccc(Nc3nc(NC4(c5ccc(Cl)cc5)CC4)nc(OCC(F)(F)F)n3)cc2)C(=O)O)c1 [Compound 3655],0.01 to 10 nM

# Same assay, conditions: Hepatitis C virus, Huh-7, read-out: Activity (EC50 class), HCV pseudoparticles (genotype 1a, H77C) in Huh7 cells; EC50 expressed as class A/B
row,Structure (SMILES),EC50
1,COC(=O)[C@H](CCNC(=O)C(=O)Nc1ccc(OCc2ccccc2)cc1)NC(=O)c1ccc(Nc2nc(NC3(c4ccc(Cl)cc4)CC3)nc(OCC(F)(F)F)n2)cc1 [Compound 3118],0.01 to 10 nM
2,COC(=O)[C@H](CNC(=O)C(=O)Nc1ccc(-c2ccc(C#N)cc2)cc1)NC(=O)c1ccc(Nc2nc(NC3(c4ccc(Cl)cc4)CC3)nc(OCC(F)(F)F)n2)cc1 [Compound 3103],0.01 to 10 nM
3,Cc1noc2ccc(NC(=O)C(=O)NCC(C)(C)CNC(=O)c3ccc(Nc4nc(NC5(c6ccc(Cl)cc6)CC5)nc(OCC(F)(F)F)n4)cc3)cc12 [Compound 3339],0.01 to 10 nM
4,COC(=O)[C@H](CCNC(=O)C(=O)Nc1ccc(-c2nc(OC)cc(OC)n2)cc1)NC(=O)c1ccc(Nc2nc(NC3(c4ccc(Cl)cc4)CC3)nc(OCC(F)(F)F)n2)cc1 [Compound 3302],0.01 to 10 nM
5,O=C(Cc1nccs1)C(=O)NCC(O)CNC(=O)c1ccc(Nc2nc(NC3(c4ccc(Cl)cc4)CC3)nc(OCC(F)(F)F)n2)cc1 (stereo not shown) [Compound 3462],0.01 to 10 nM
6,Cc1cc(NC(=O)C(=O)NCCNC(=O)c2ccc(Nc3nc(NC4(c5ccc(Cl)cc5)CC4)nc(OCC(F)(F)F)n3)cc2)no1 [Compound 3372],0.01 to 10 nM
7,COC(=O)[C@H](CNC(=O)C(=O)Nc1ccc(N2CCCC2=O)cc1)NC(=O)c1ccc(Nc2nc(NC3(c4ccc(Cl)cc4)CC3)nc(OCC(F)(F)F)n2)cc1 [Compound 3097],0.01 to 10 nM
8,O=C(NC/C(=N/C(=O)c1ccc(Nc2nc(NC3(c4ccc(Cl)cc4)CC3)nc(OCC(F)(F)F)n2)cc1)C(=O)O)C(=O)Nc1ccc(Cc2ccncc2)cc1 [Compound 3162],0.01 to 10 nM
9,CC(C)(CNC(=O)C(=O)Nc1ccc(F)cc1C(F)(F)F)CNC(=O)c1ccc(Nc2nc(NC3(c4ccc(Cl)cc4)CC3)nc(OCC(F)(F)F)n2)cc1 [Compound 3457],0.01 to 10 nM
10,CN(CCCN(C)C(=O)c1ccc(Nc2nc(NC3(c4ccc(Cl)cc4)CC3)nc(OCC(F)(F)F)n2)cc1)C(=O)C(=O)Nc1ccc(F)cc1 [Compound 3412],0.01 to 10 nM
11,O=C(NC/C(=N/C(=O)c1ccc(Nc2nc(NC3(c4ccc(Cl)cc4)CC3)nc(OCC(F)(F)F)n2)cc1)C(=O)O)C(=O)Nc1ccc(-n2cnc(O)c2O)cc1 [Compound 3163],0.01 to 10 nM
12,COC(=O)[C@H](CNC(=O)C(=O)Nc1ccc(-c2ccncc2)cc1)NC(=O)c1ccc(Nc2nc(NC3(c4ccc(Cl)cc4)CC3)nc(OCC(F)(F)F)n2)cc1 [Compound 3181],0.01 to 10 nM
13,CC(C)(CNC(=O)C(=O)Nc1ccc2[nH]nnc2c1)CNC(=O)c1ccc(Nc2nc(NC3(c4ccc(Cl)cc4)CC3)nc(OCC(F)(F)F)n2)cc1 [Compound 3352],0.01 to 10 nM
